Reference: PubChem BioAssay (NCI)
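Five concentrations, 48 hours, 96-well plates. At the GI50, growth is halved. TGI: concentration producing complete growth inhibition.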

How the values were obtained:
Experiment in all cases: inhibition of tumour cell growth, NCI panel, 48 h
LOX IMVI melanoma = test system: LOX IMVI melanoma
A498 renal = test system: A498 renal
SF-539 CNS = test system: SF-539 CNS
NCI-H460 lung = test system: NCI-H460 lung
OVCAR-8 ovarian = test system: OVCAR-8 ovarian
DU-145 prostate = test system: DU-145 prostate
MALME-3M melanoma = test system: MALME-3M melanoma
SF-295 CNS = test system: SF-295 CNS
UACC-62 melanoma = test system: UACC-62 melanoma
M14 melanoma = test system: M14 melanoma
CAKI-1 renal = test system: CAKI-1 renal
UO-31 renal = test system: UO-31 renal
HS 578T breast = test system: HS 578T breast
SK-MEL-2 melanoma = test system: SK-MEL-2 melanoma
U251 CNS = test system: U251 CNS
PC-3 prostate = test system: PC-3 prostate
SK-MEL-28 melanoma = test system: SK-MEL-28 melanoma
KM12 colon = test system: KM12 colon
OVCAR-5 ovarian = test system: OVCAR-5 ovarian
SW-620 colon = test system: SW-620 colon
HCT-116 colon = test system: HCT-116 colon
RPMI-8226 leukemia = test system: RPMI-8226 leukemia
SK-MEL-5 melanoma = test system: SK-MEL-5 melanoma
EKVX NSCLC = test system: EKVX NSCLC
SN12C renal = test system: SN12C renal
SNB-19 CNS = test system: SNB-19 CNS
NCI/ADR-RES ovarian = test system: NCI/ADR-RES ovarian
NCI-H23 lung = test system: NCI-H23 lung
OVCAR-3 ovarian = test system: OVCAR-3 ovarian
HCT-15 colon = test system: HCT-15 colon
SK-OV-3 ovarian = test system: SK-OV-3 ovarian
IGROV1 ovarian = test system: IGROV1 ovarian
HL-60(TB) leukemia = test system: HL-60(TB) leukemia
MCF7 breast = test system: MCF7 breast
BT-549 breast = test system: BT-549 breast
HOP-92 NSCLC = test system: HOP-92 NSCLC
ACHN renal = test system: ACHN renal
A549 NSCLC = test system: A549 NSCLC
SF-268 CNS = test system: SF-268 CNS
TK-10 renal = test system: TK-10 renal
OVCAR-4 ovarian = test system: OVCAR-4 ovarian
786-0 renal = test system: 786-0 renal
UACC-257 melanoma = test system: UACC-257 melanoma
NCI-H522 lung = test system: NCI-H522 lung
MOLT-4 leukemia = test system: MOLT-4 leukemia
HCC-2998 colon = test system: HCC-2998 colon
K-562 leukemia = test system: K-562 leukemia
HOP-62 NSCLC = test system: HOP-62 NSCLC
MDA-MB-231 breast = test system: MDA-MB-231 breast
RXF 393 renal = test system: RXF 393 renal
COLO 205 colon = test system: COLO 205 colon
HT29 colon = test system: HT29 colon
NCI-H226 lung = test system: NCI-H226 lung
MDA-MB-435 = test system: MDA-MB-435
CCRF-CEM leukemia = test system: CCRF-CEM leukemia

For `O=C1OCC2=C1C(c1cccc(C(F)(F)F)c1)c1cc3c(cc1N2CCO)CCC3` (stereo not given), which GI50 (LOX IMVI melanoma) is on record?
Its GI50 is 271 nM.

What about the TGI (LOX IMVI melanoma) of the same compound?
Its TGI is 6770 nM.

What about the GI50 (A498 renal) of the same compound?
Its GI50 is 80.4 nM.

And the TGI (A498 renal)?
Its TGI is 397 nM.

And the GI50 (SF-539 CNS)?
The GI50 was 132 nM.

And the TGI (SF-539 CNS)?
The TGI was 460 nM.

And the GI50 (NCI-H460 lung)?
Its GI50 is 167 nM.

What about the TGI (NCI-H460 lung) of the same compound?
Its TGI is 5400 nM.

What about the GI50 (OVCAR-8 ovarian) of the same compound?
The GI50 was 203 nM.

What about the TGI (OVCAR-8 ovarian) of the same compound?
Its TGI is 8310 nM.

And the GI50 (DU-145 prostate)?
The GI50 was 195 nM.

What about the TGI (DU-145 prostate) of the same compound?
The TGI was 5660 nM.

What about the GI50 (MALME-3M melanoma) of the same compound?
Its GI50 is 714 nM.

What about the TGI (MALME-3M melanoma) of the same compound?
The TGI was 10500 nM.

And the GI50 (SF-295 CNS)?
The GI50 was 138 nM.

And the TGI (SF-295 CNS)?
The TGI was 6210 nM.

And the GI50 (UACC-62 melanoma)?
Its GI50 is 174 nM.

And the TGI (UACC-62 melanoma)?
Its TGI is 9150 nM.

What about the GI50 (M14 melanoma) of the same compound?
The GI50 was 159 nM.

What about the TGI (M14 melanoma) of the same compound?
Its TGI is 6200 nM.

And the GI50 (CAKI-1 renal)?
The GI50 was 174 nM.

And the TGI (CAKI-1 renal)?
The TGI was 7460 nM.

What about the GI50 (UO-31 renal) of the same compound?
Its GI50 is 323 nM.

What about the TGI (UO-31 renal) of the same compound?
Its TGI is 9010 nM.

What about the GI50 (HS 578T breast) of the same compound?
Its GI50 is 146 nM.

And the TGI (HS 578T breast)?
Its TGI is 7720 nM.

What about the GI50 (SK-MEL-2 melanoma) of the same compound?
The GI50 was 340 nM.

What about the TGI (SK-MEL-2 melanoma) of the same compound?
Its TGI is 10600 nM.

What about the GI50 (U251 CNS) of the same compound?
The GI50 was 199 nM.

And the TGI (U251 CNS)?
The TGI was 7920 nM.

What about the GI50 (PC-3 prostate) of the same compound?
Its GI50 is 194 nM.

What about the TGI (PC-3 prostate) of the same compound?
Its TGI is 7560 nM.

And the GI50 (SK-MEL-28 melanoma)?
Its GI50 is 1410 nM.

And the TGI (SK-MEL-28 melanoma)?
Its TGI is 12100 nM.

What about the GI50 (KM12 colon) of the same compound?
Its GI50 is 157 nM.

And the TGI (KM12 colon)?
The TGI was 6370 nM.

What about the GI50 (OVCAR-5 ovarian) of the same compound?
Its GI50 is 265 nM.

And the TGI (OVCAR-5 ovarian)?
The TGI was 8970 nM.

And the GI50 (SW-620 colon)?
Its GI50 is 189 nM.

And the TGI (SW-620 colon)?
The TGI was 9160 nM.

What about the GI50 (HCT-116 colon) of the same compound?
Its GI50 is 175 nM.

And the TGI (HCT-116 colon)?
Its TGI is 6550 nM.

What about the GI50 (RPMI-8226 leukemia) of the same compound?
Its GI50 is 239 nM.

And the TGI (RPMI-8226 leukemia)?
Its TGI is 12800 nM.

What about the GI50 (SK-MEL-5 melanoma) of the same compound?
The GI50 was 156 nM.

What about the TGI (SK-MEL-5 melanoma) of the same compound?
Its TGI is 2180 nM.

And the GI50 (EKVX NSCLC)?
Its GI50 is 278 nM.

And the TGI (EKVX NSCLC)?
The TGI was 9520 nM.

And the GI50 (SN12C renal)?
The GI50 was 309 nM.

And the TGI (SN12C renal)?
Its TGI is 7760 nM.

And the GI50 (SNB-19 CNS)?
Its GI50 is 215 nM.

What about the TGI (SNB-19 CNS) of the same compound?
The TGI was 8800 nM.

What about the GI50 (NCI/ADR-RES ovarian) of the same compound?
The GI50 was 153 nM.

What about the TGI (NCI/ADR-RES ovarian) of the same compound?
The TGI was 6820 nM.

What about the GI50 (NCI-H23 lung) of the same compound?
Its GI50 is 321 nM.

What about the TGI (NCI-H23 lung) of the same compound?
Its TGI is 14500 nM.

And the GI50 (OVCAR-3 ovarian)?
Its GI50 is 161 nM.

And the TGI (OVCAR-3 ovarian)?
The TGI was 2210 nM.

And the GI50 (HCT-15 colon)?
Its GI50 is 150 nM.

And the TGI (HCT-15 colon)?
Its TGI is 6020 nM.

What about the GI50 (SK-OV-3 ovarian) of the same compound?
The GI50 was 179 nM.

What about the TGI (SK-OV-3 ovarian) of the same compound?
The TGI was 8640 nM.

And the GI50 (IGROV1 ovarian)?
The GI50 was 312 nM.

And the TGI (IGROV1 ovarian)?
The TGI was 8250 nM.

What about the GI50 (HL-60(TB) leukemia) of the same compound?
Its GI50 is 133 nM.

What about the TGI (HL-60(TB) leukemia) of the same compound?
The TGI was 427 nM.

And the GI50 (MCF7 breast)?
The GI50 was 170 nM.

What about the TGI (MCF7 breast) of the same compound?
Its TGI is 7650 nM.

And the GI50 (BT-549 breast)?
Its GI50 is 219 nM.

And the TGI (BT-549 breast)?
Its TGI is 5320 nM.

And the GI50 (HOP-92 NSCLC)?
The GI50 was 1740 nM.

What about the TGI (HOP-92 NSCLC) of the same compound?
The TGI was 10300 nM.

What about the GI50 (ACHN renal) of the same compound?
Its GI50 is 441 nM.

And the TGI (ACHN renal)?
Its TGI is 9230 nM.

What about the GI50 (A549 NSCLC) of the same compound?
The GI50 was 201 nM.

And the TGI (A549 NSCLC)?
Its TGI is 8040 nM.

And the GI50 (SF-268 CNS)?
The GI50 was 266 nM.

What about the TGI (SF-268 CNS) of the same compound?
The TGI was 7150 nM.

And the GI50 (TK-10 renal)?
Its GI50 is 359 nM.

And the TGI (TK-10 renal)?
Its TGI is 10900 nM.

And the GI50 (OVCAR-4 ovarian)?
The GI50 was 1050 nM.

What about the TGI (OVCAR-4 ovarian) of the same compound?
The TGI was 11200 nM.

What about the GI50 (786-0 renal) of the same compound?
The GI50 was 289 nM.

What about the TGI (786-0 renal) of the same compound?
Its TGI is 8130 nM.

What about the GI50 (UACC-257 melanoma) of the same compound?
Its GI50 is 6500 nM.

What about the TGI (UACC-257 melanoma) of the same compound?
The TGI was 15200 nM.

And the GI50 (NCI-H522 lung)?
The GI50 was 137 nM.

And the TGI (NCI-H522 lung)?
The TGI was 1350 nM.

And the GI50 (MOLT-4 leukemia)?
Its GI50 is 270 nM.

And the TGI (MOLT-4 leukemia)?
Its TGI is 15500 nM.

And the GI50 (HCC-2998 colon)?
The GI50 was 177 nM.

What about the TGI (HCC-2998 colon) of the same compound?
The TGI was 6760 nM.

And the GI50 (K-562 leukemia)?
Its GI50 is 174 nM.

What about the TGI (K-562 leukemia) of the same compound?
The TGI was 28100 nM.

And the GI50 (HOP-62 NSCLC)?
The GI50 was 178 nM.

And the TGI (HOP-62 NSCLC)?
Its TGI is 7740 nM.

And the GI50 (MDA-MB-231 breast)?
The GI50 was 223 nM.

What about the TGI (MDA-MB-231 breast) of the same compound?
The TGI was 6760 nM.

And the GI50 (RXF 393 renal)?
Its GI50 is 145 nM.

What about the TGI (RXF 393 renal) of the same compound?
The TGI was 8380 nM.

And the GI50 (COLO 205 colon)?
The GI50 was 163 nM.

And the TGI (COLO 205 colon)?
Its TGI is 1590 nM.

And the GI50 (HT29 colon)?
Its GI50 is 167 nM.

And the TGI (HT29 colon)?
The TGI was 5270 nM.

What about the GI50 (NCI-H226 lung) of the same compound?
Its GI50 is 1000 nM.

What about the TGI (NCI-H226 lung) of the same compound?
The TGI was 9430 nM.

What about the GI50 (MDA-MB-435) of the same compound?
The GI50 was 50 nM.

And the TGI (MDA-MB-435)?
The TGI was 159 nM.

And the GI50 (CCRF-CEM leukemia)?
The GI50 was 217 nM.

And the TGI (CCRF-CEM leukemia)?
The TGI was 45400 nM.
